{"source": "patent US20190046600A1", "about": "“COMPOSITIONS AND USES THEREOF” (priority 2016, published 2019)", "key": {"[1]": {"test_system": "NCI-H460 human non-small-cell lung cancer cells", "assay": "Cell survival with or without 2-deoxyglucose, alamarBlue", "assay_type": "cell-based", "details": "combination with 3.125 mmol 2-DOG versus alone", "source_text": "Since the compounds according to the invention appeared to be causing cell death by necrosis as a result of NAD/ATP depletion, it was hypothesised that their activity could be potentiated by administering the compounds with a glycolysis inhibitor. The cell killing ability of HILR-025 (SEQ ID NO: 15) and HILR-D-07 sodium salt (SEQ ID NO: 30) in the presence and absence of the glycolysis inhibitor 2-deoxyglucose (2-DOG) was therefore assayed.\nNCI-H460 human non-small-cell lung cancer cells were contacted with HILR-025 or HILR-D-07 alone or in combination with 3.125 mmol 2-DOG and cell survival was determined using AlamaBlue® cell viability reagent (Life Technologies, Inc.) in accordance with the manufacturer's instructions."}, "[2]": {"test_system": "NCI H460 Human Non-small cell lung cancer", "assay": "Light microscopy of treated cell cultures", "assay_type": "cell-based", "details": "versus DMSO control", "method": "To investigate further the mechanism of action of the anionic warhead, cultures of NCI H460 Human Non-small cell lung cancer were exposed to HILR-025 and HILR-D-07 and observed using light microscopy. A comparative cell culture was treated with DMSO to provide a negative control."}, "human cancer cell lines": {"test_system": "human cancer cell lines", "details": "cited from earlier work; for bio-activity of cyclic peptide (active / inactive): PRGPRP warhead combined with non-amphiphilic backbone"}, "NCI-H460 cells [3]": {"test_system": "NCI-H460 cells", "details": "96 h", "quoted_text": "Methods measuring cell viability include the use of alamarBlue® cell viability reagent (Life Technologies, Inc.) (resazurin) with fluorescence detection.\n1) NCI-H460 cells were grown in Ham's F12 media supplemented with 10% FBS. 2) Cells were harvested and seeded into 96-well plates at 500 cells/well. 3) Compounds were made up from stock solutions and added directly to cells in doubling dilutions starting at 200 μM. Final DMSO concentration was 0.2%. 4) Cells were grown with compound for 96 hours at 37° C. 5% CO2 in a humidified atmosphere. 5) A resazurin dye composition (AlamarBlue® cell viability reagent (Life Technologies, Inc.)) 10% (v/v) was then added and incubated for a further 4 hours, and fluorescent product detected using the BMG FLUOstar plate reader. 6) Media only background readings were subtracted before data were analysed using a 4-parameter logistic equation in GraphPad Prism."}, "[4]": {"test_system": "NCI-H460 human non-small cell lung cancer cells", "details": "amphiphilic backbones of different length and composition; cited from earlier work"}, "NCI-H460 cells [5]": {"test_system": "NCI-H460 cells", "assay": "HILR-001 with or without 30 nM Olaparib on NCI-H460, alamarBlue and CellTiter-Glo time course", "assay_type": "cell-based, human", "details": "HILR-001 as single agent, particularly evident at later time points", "method": "At each time point cell viability was measured by two assay readouts, alamarBlue® and CellTiter-Glo. Conversion of alamarBlue® to a fluorescent product serves as a readout of the metabolic activity of cells, whereas CellTiter-Glo is based on quantification of the ATP present.\n2) Cells were harvested and seeded into 96-well plates at 500 cells/well. 3) HILR-001 was made up from a 10 mM stock solution and added directly to cells in doubling dilutions starting at 200 μM. […] The total final DMSO concentration was 0.25%. 4) Cells were grown with compound for 24, 48, 72 or 96 hours at 37° C. 5% CO2 in a humidified atmosphere. 5) AlamarBlue® 10% (v/v) was then added and incubated for a further 4 hours, and fluorescent product detected using the BMG FLUOstar plate reader. 6) On duplicate plates the media was removed from the cells, CellTiter-Glo was diluted in PBS (1:10) and 100 μl added to the cells. 7) Plates were mixed on an orbital shaker for 2 minutes and incubated for a further 10 minutes at room temperature. Luminescent signal was then measured using the BMG FLUOstar plate reader."}, "[6]": {"test_system": "Lactate Dehydrogenase A [LDHA]", "assay": "LDH activity assay on lysates of treated NCI-H460 cells (Abcam ab102526)", "assay_type": "cell-based, human", "details": "NCI-H460 cells treated 24 h or 96 h, normalised to protein; read-out: IC50 for inhibiting the activity of LDH", "method": "An LDH activity assay was conducted on samples derived from NCI-H460 cells treated with 2 test compounds (HILR-025 and HILR-030) for either 24h or 96h. […] Therefore a BCA assay was conducted to estimate the total amount of protein present in each LDH assay lysate and this was used to normalise the enzyme activity data. As an indication of cell viability, an Alamar blue assay was also carried out at both timepoints, to serve as an additional point of reference.\n2) Cells were harvested and seeded into 96-well plates at either 500 cells/well (for the 96h timepoint) or 5000 cells/well for the 24h timepoint. […] 6) At the end of the assay (24 or 96h), Alamar blue 10% (v/v) was added to one set of plates, incubated for a further 4 hours, and fluorescent product detected using the BMG FLUOstar plate reader. […] 10) LDH activity was measured in the cleared lysates using an LDH activity kit (Abcam, ab102526). 11) After preparation of the LDH activity assay reactions, according to the manufacturer's instructions, absorbance at 450 nm was measured at the initial time to determine (A450)initial 12) Further absorbance readings were taken at 3 minute intervals for up to 15 minutes. […] 16) The LDH activity of each sample was determined by the following equation:\n[formula] […] Protein content in remaining cleared lysates was determined using a BCA assay (ThermoScientific). • b. Data were analysed using GraphPad Prism. […]"}}, "note": "Square brackets hold non-standard residues; d marks the D form. Ends that are not written are not given here. Peptide text beside a SMILES is read from it. Phe(4-guanidino) = N=C(N)Nc1ccc(C[C@H](N)C(=O)O)cc1; Abu(4-SO3H) = N[C@@H](CCS(=O)(=O)O)C(=O)O"}
{"molecule": "cyclo-[Pro-Hca-Gly-Pro-Hca-Pro-Val-Trp-Trp-Gpa-Gpa-Trp-Trp-Gpa-Gpa-Trp-Trp] (cyclo(P[Abu(4-SO3H)]GP[Abu(4-SO3H)]PVWW[Phe(4-guanidino)][Phe(4-guanidino)]WW[Phe(4-guanidino)][Phe(4-guanidino)]WW); SMILES CC(C)[C@@H]1NC(=O)[C@@H]2CCCN2C(=O)[C@H](CCS(=O)(=O)O)NC(=O)[C@@H]2CCCN2C(=O)CNC(=O)[C@H](CCS(=O)(=O)O)NC(=O)[C@@H]2CCCN2C(=O)[C@H](Cc2c[nH]c3ccccc23)NC(=O)[C@H](Cc2c[nH]c3ccccc23)NC(=O)[C@H](Cc2ccc(NC(=N)N)cc2)NC(=O)[C@H](Cc2ccc(NC(=N)N)cc2)NC(=O)[C@H](Cc2c[nH]c3ccccc23)NC(=O)[C@H](Cc2c[nH]c3ccccc23)NC(=O)[C@H](Cc2ccc(NC(=N)N)cc2)NC(=O)[C@H](Cc2ccc(NC(=N)N)cc2)NC(=O)[C@H](Cc2c[nH]c3ccccc23)NC(=O)[C@H](Cc2c[nH]c3ccccc23)NC1=O) [HILR-D-07]", "values": [{"measurement": "cell killing ability with 2-DOG", "setting": "[1]", "result": "enhanced by co-administration with 2-DOG"}, {"measurement": "cell morphology", "setting": "[2]", "result": "Ring-shaped morphology"}]}
{"molecule": "Cyc-[GGGGGGPRGPRPGGGGGG] [SEQ ID NO: 8] (cyclic; cyclic peptide; (1)..(18) cyclic peptide)", "values": [{"measurement": "bio-activity of cyclic peptide (active / inactive)", "setting": "human cancer cell lines", "result": "SEQ ID NO: 8: Cyc-[GGGGGGPRGPRPGGGGGG]INACTIVE"}]}
{"molecule": "Cyc-[GGGGGGPRGPRPGGGGGG] [SEQ ID NO: 7] (cyclic; cyclic peptide; (1)..(18) cyclic peptide)", "values": [{"measurement": "bio-activity of cyclic peptide (active / inactive)", "setting": "human cancer cell lines", "result": "SEQ ID NO: 7: Cyc-[GGGGGGPRGPRPGGGGGG]INACTIVE"}]}
{"molecule": "Cyc-[AAAGGGPRGPRPGGGAAA] (cyclic; Cyclic peptide; (1)..(18) cyclic peptide) [SEQ ID NO: 6]", "values": [{"measurement": "bio-activity of cyclic peptide (active / inactive)", "setting": "human cancer cell lines", "result": "SEQ ID NO: 6: Cyc-[AAAGGGPRGPRPGGGAAA]INACTIVE"}]}
{"molecule": "-Pro-Glu-Gly-Pro-Glu-Pro- (PEGPEP; not fully specified; printed as -Pro-Glu-Gly-Pro-Glu-Pro-) [anionic hexapeptide, comparative peptide]", "values": [{"measurement": "activity of anionic hexapeptide", "setting": "human cancer cell lines; linear hexapeptide, earlier study", "result": "inactive"}]}
{"molecule": "Cyc-[PRGPRPvalklalkalal] [THR79]", "values": [{"measurement": "selective killing of human cancer cell lines", "setting": "human cancer cell lines", "result": "selectively killed a wide range of human cancer cell lines"}]}
{"molecule": "Cyc-[AAGPGGPRGPRPGGPGAA] (cyclic; cyclic peptide; (1)..(18) cyclic peptide) [SEQ ID NO: 9]", "values": [{"measurement": "bio-activity of cyclic peptide (active / inactive)", "setting": "human cancer cell lines", "result": "SEQ ID NO: 9: Cyc-[AAGPGGPRGPRPGGPGAA]INACTIVE"}]}
{"molecule": "CC(C)[C@@H]1NC(=O)[C@@H]2CCCN2C(=O)[C@H](CCC(=O)O)NC(=O)[C@@H]2CCCN2C(=O)CNC(=O)[C@H](CCC(=O)O)NC(=O)[C@@H]2CCCN2C(=O)[C@H](Cc2c[nH]c3ccccc23)NC(=O)[C@H](Cc2c[nH]c3ccccc23)NC(=O)[C@H](CCCNC(=N)N)NC(=O)[C@H](CCCNC(=N)N)NC(=O)[C@H](Cc2c[nH]c3ccccc23)NC(=O)[C@H](Cc2c[nH]c3ccccc23)NC(=O)[C@H](CCCNC(=N)N)NC(=O)[C@H](CCCNC(=N)N)NC(=O)[C@H](Cc2c[nH]c3ccccc23)NC(=O)[C@H](Cc2c[nH]c3ccccc23)NC1=O", "note": "[HILR-D-02] (cyclo(PEGPEPVWWRRWWRRWW))", "values": [{"measurement": "IC50", "setting": "NCI-H460 cells [3]", "result": 38, "unit": "µM"}]}
{"molecule": "CC(C)C[C@@H]1NC(=O)[C@H](C)NC(=O)[C@H](C(C)C)NC(=O)[C@@H]2CCCN2C(=O)[C@H](CCCNC(=N)N)NC(=O)[C@@H]2CCCN2C(=O)CNC(=O)[C@H](CCCNC(=N)N)NC(=O)[C@@H]2CCCN2C(=O)[C@H](CC(C)C)NC(=O)[C@H](C)NC(=O)[C@H](CC(C)C)NC(=O)[C@H](CCCCN)NC(=O)[C@H](CC(C)C)NC(=O)[C@H](C)NC(=O)[C@H](CC(C)C)NC(=O)[C@H](CCCCN)NC1=O", "note": "[HILR-001] (cyclo(PRGPRPVALKLALKLAL))", "values": [{"measurement": "killing NCI-H460 cells (active / inactive)", "setting": "[4]", "result": "ACTIVE"}, {"measurement": "IC50", "setting": "NCI-H460 cells [3]", "result": 98, "unit": "µM"}, {"measurement": "metabolic activity (alamarBlue)", "setting": "NCI-H460 cells [5]", "result": "dose dependent decrease"}, {"measurement": "selective killing of human cancer cell lines", "setting": "human cancer cell lines", "result": "selectively killed a wide range of human cancer cell lines"}]}
{"molecule": "Cyc-[PRGPRPVKLALKLALKLAL] (cyclic; cyclic peptide; (1)..(19) cyclic peptide) [THR52]", "values": [{"measurement": "killing NCI-H460 cells (active / inactive)", "setting": "[4]", "result": "INACTIVE"}]}
{"molecule": "Cyc-[PRGPRPVKLALKLALKFP] (cyclic; cyclic peptide; (1)..(18) cyclic peptide) [THR53]", "values": [{"measurement": "killing NCI-H460 cells (active / inactive)", "setting": "[4]", "result": "ACTIVE"}, {"measurement": "selective killing of human cancer cell lines", "setting": "human cancer cell lines", "result": "selectively killed a wide range of human cancer cell lines"}]}
{"molecule": "CC(C)[C@@H]1NC(=O)[C@@H]2CCCN2C(=O)[C@H](CCCNC(=N)N)NC(=O)[C@@H]2CCCN2C(=O)CNC(=O)[C@H](CCCNC(=N)N)NC(=O)[C@@H]2CCCN2C(=O)[C@H](Cc2c[nH]c3ccccc23)NC(=O)[C@H](Cc2c[nH]c3ccccc23)NC(=O)[C@H](CCCNC(=N)N)NC(=O)[C@H](CCCNC(=N)N)NC(=O)[C@H](Cc2c[nH]c3ccccc23)NC(=O)[C@H](Cc2c[nH]c3ccccc23)NC(=O)[C@H](CCCNC(=N)N)NC(=O)[C@H](CCCNC(=N)N)NC(=O)[C@H](Cc2c[nH]c3ccccc23)NC(=O)[C@H](Cc2c[nH]c3ccccc23)NC1=O", "note": "[HILR-025] (cyclo(PRGPRPVWWRRWWRRWW))", "values": [{"measurement": "cell killing ability with 2-DOG", "setting": "[1]", "result": "enhanced by co-administration with 2-DOG"}, {"measurement": "IC50", "setting": "NCI-H460 cells [3]", "result": 15, "unit": "µM"}, {"measurement": "IC50", "setting": "[6]", "result": 16, "unit": "µM"}, {"measurement": "cell morphology", "setting": "[2]", "result": "Ring-shaped morphology"}]}
{"molecule": "CC(C)[C@@H]1NC(=O)[C@@H]2CCCN2C(=O)[C@H](CCS(=O)(=O)O)NC(=O)[C@@H]2CCCN2C(=O)CNC(=O)[C@H](CCS(=O)(=O)O)NC(=O)[C@@H]2CCCN2C(=O)[C@H](Cc2c[nH]c3ccccc23)NC(=O)[C@H](Cc2c[nH]c3ccccc23)NC(=O)[C@H](CCCNC(=N)N)NC(=O)[C@H](CCCNC(=N)N)NC(=O)[C@H](Cc2c[nH]c3ccccc23)NC(=O)[C@H](Cc2c[nH]c3ccccc23)NC(=O)[C@H](CCCNC(=N)N)NC(=O)[C@H](CCCNC(=N)N)NC(=O)[C@H](Cc2c[nH]c3ccccc23)NC(=O)[C@H](Cc2c[nH]c3ccccc23)NC1=O", "note": "[HILR-D-06] (cyclo(P[Abu(4-SO3H)]GP[Abu(4-SO3H)]PVWWRRWWRRWW))", "values": [{"measurement": "IC50", "setting": "NCI-H460 cells [3]", "result": 25, "unit": "µM"}]}
